Experimental data as given in patent US6476036B1, “Sodium salt of 3-(4-cinnamyl-1-piperazinyl)-imino-methyl rifamycin SV” (priority 1998, dated 2002).
Where two headings read alike, the source gives them in different places.

What was measured:
[1] = mice; cited from earlier work
Solubility = type: physicochemical; conditions: water and organic solvents
Protocol: 4,62 g (0,005 g/moll) of 3-(4-cinnamyl-1-piperazinyl)-iminomethyl rifamycin SV is suspended in 40 ml methanol and 0,1 g sodium ascorbate dissolved in 1 ml water is added. To the obtained suspension 0,9 ml of 30% methanol solution of sodium methylate (equimolar quantity) is added. The suspension immediately turns into a solution because of the formation of the sodium salt. The reaction mixture is filtered to remove the unsolved sediment of sodium ascorbate, and the solvent is concentratrated in vacuum and dried to give the soduim salt as a dark-red solid powder. This product has high purity and the yield is practically quantitative.

[2] = mouse, in vivo, 20 mg/kg
[3] = rat, in vivo, 20 mg/kg
[4] = rabbit, in vivo, 20 mg/kg
generalized tuberculosis = conditions: doses 10 mg/kg, after 60 days of treatment, test animals; cited from earlier work
[5] = Non-model pharmacokinetics in mice; conditions: base 20 mg/kg
[6] = Stability of water solutions; type: physicochemical
[7] = system: Gram-positive microorganisms including aerobic, anaerobic and Mycobacterium (typical and atypical); assay: In vitro antibacterial activity; type: cell-based; conditions: in comparison with the initial compound T-9

Row | Molecule | acute toxicity [1] [mg/kg] | solubility (Solubility) | AUC [2] [µg·h/mL] | CL [2] [mL·min/kg] | Cmax [2] [ng/mL] | Tmax [2] [h] | AUC [3] [µg·h/mL] | Cmax [3] [ng/mL] | T1/2 [3] [h] | Tmax [3] [h] | AUC [4] [µg·h/mL] | Cmax [4] [ng/mL] | T1/2 [4] [h] | Tmax [4] [h] | therapeutic activity in generalized tuberculosis (generalized tuberculosis) | T1/2 ([5]; p.o) [h] | stability of the obtained water solutions [6] | antibacterial activity in vitro [7] | T1/2 ([5]; i.v) [h]
1 | CO[C@H]1/C=C/O[C@@]2(C)Oc3c(C)c(O)c4c(O)c(c(/C=N/N5CCN(C)CC5)c(O)c4c3C2=O)NC(=O)/C(C)=C\C=C\[C@H](C)[C@H](O)[C@@H](C)[C@@H](O)[C@@H](C)[C@H](OC(C)=O)[C@@H]1C [Rifampicin] | 1500 | – | – | – | – | – | – | – | – | – | – | – | – | – | – | – | – | – | –
2 | CO[C@H]1/C=C/O[C@@]2(C)Oc3c(C)c(O)c4c(O)c(c(/C=N/N5CCN(C/C=C/c6ccccc6)CC5)c(O)c4c3C2=O)NC(=O)/C(C)=C\C=C\[C@H](C)[C@H](O)[C@@H](C)[C@@H](O)[C@@H](C)[C@H](OC(C)=O)[C@@H]1C [T-9, 3-(4-cinnamyl-1-piperazinyl)-iminomethyl rifamycin SV, reference compound] | 4000 | unsoluble | 735 | 0.092 | 12400 | 8 | 543 | 8200 | 21.18 | 6 | 233 | 2750 | 56.63 | 2 | full organ sterilization | 33.70 | – | – | –
3 | sodium salt of 3-(4-cinnamyl-1-piperazinyl)-iminomethyl rifamycin SV [T-11] | – | soluble in water, methanol, ethanol, acetone and unsoluble in isopropanol | – | 0.092 | – | – | 671 | 9200 | 20.04 | 2 | 299 | 2710 | 28.04 | 2 | – | 38.02 | good stability | good antibacterial activity | 39.08
